# How the values were obtained:
# mice [1] = experiment: Staircase test; format: in vivo, mouse; details: spadin i.p. 10^−5 M or diazepam i.p. 0.5 mg/kg, 30 min before test, vs saline; n = 10
# Method: Stair case test. The apparatus comprised an enclosed staircase consisted of five identical steps (2.5 cm in height X 11 cm in width X 7.5 cm in length), each made of black plastic. The height of the walls was constant (12.5 cm above the stairs) along the entire length of the staircase. Each mouse was placed individually on the floor of the staircase with its back to the staircase. A step was considered climbed only if the mouse placed all four paws on it. Rearing was recorded when the mouse rose on its hind legs either on the step or against the wall. The number of steps ascended and the number of rearings made in a 3-min period were recorded. Results were expressed as ratio of rearing/step numbers.
# mice [2] = experiment: Light/dark exploration test; format: in vivo, mouse; details: spadin i.p. 10^−5 M or diazepam i.p. 0.5 mg/kg, 30 min before test, vs saline; n = 10
# Method: Light/dark exploration. The apparatus consisted of a cage (25X40X20 cm) divided into two compartments by a black partition containing a small opening that allows mouse to move from one compartment to the other. One compartment, comprising […] of the surface area, was made of white plastic and was brightly illuminated. The adjoining smaller compartment was black and dark. Mice were placed in the white compartment and allowed to move freely between the two chambers for 5 minutes. The number of transitions between the two compartments, time spent in the white chamber, and latency to the first transition were recorded. Mice tend to avoid the white compartment. Thus the measures of exploration in this area (time and entrances) were used as experimental indices of anxiety.
# mice [3] = experiment: Elevated plus-maze; format: in vivo, mouse; details: spadin i.p. 10^−5 M or diazepam i.p. 0.5 mg/kg, 30 min before test, vs saline; n = 10
# From the text: Elevated plus-maze. The apparatus consisted of two open and two enclosed arms of the same size (45x5 cm) with walls 15 cm high. The arms, constructed of black acrylic, radiate from a common central platform (5x5 cm) to form a plus sign. Open arms were arranged opposite to one another, as were closed arms. The maze was elevated to a height of 45 cm above floor level. Each mouse was placed in the central platform facing one of the open arms. The number of entries into the open and closed arms and the time spent on the open and closed arms were recorded during a 5 min test period. Time spent in the unprotected open arms as well as the number of entries in open arms in relation to the total of arm entries are used as experimental indices of anxiety.
# TREK-1 [4] = experiment: Whole-cell patch-clamp, cultured hippocampal pyramidal neurons; format: cell-based, mouse
# Method: Cortical neurons were prepared from 14 old mouse embryos, whereas hippocampal neurons were prepared from newborn mice. Briefly, dissected brain areas were dissociated and neurons were plated on polylysine-treated 35 or 60 mm dishes and maintained in culture in Neurobasal medium supplemented with B27, Glutamax, and antibiotics for 2 to 3 wk before to be used for electrophysiological or biochemical experiments.
# Supplementary file pbio.1000355.s004.tif: Figure S4 Effects of spadin on cultured pyramidal neurons from hippocampus. (A) Cultured pyramidal neuron from hippocampus, with on top, the patch-clamp pipette. Neurons were chosen according to their morphology. (B) Current recorded in response to ramps of potential obtained in the various conditions indicated (aa, arachidonic acid: 10 µM; Spadin: 1 µM; Fluoxetine: 20 µM). Neurons were recorded in the whole-cell configuration of the patch-clamp technique. In voltage-clamp, ramps of potential from −90 mV to 70 mV were applied every 10 s. The % variation of the current amplitude was always measured at −50 mV. The currents were recorded in response to such ramps in control conditions and in the presence of a cocktail of potassium blockers suitable to isolate the TREK currents (10 mM tetraethyl ammonium (TEA), 3 mM 4-aminopyridine (4-AP), 50 nM charybdotoxin, 10 µM glibenclamide, 100 nM apamin). […] The blocks were reversible. (C) Time course of spadin and fluoxetine effects. Applications are indicated by the horizontal bars. (2.03 MB TIF) Click here for additional data file.
# [5] = tested on: BrdU-positive cells in mouse hippocampus; experiment: Hippocampal neurogenesis (BrdU labeling); format: in vivo
# Method: Twenty-four hours after the injection of BrdU (120 mg per kg of body weight in a 300 µl bolus), mice were euthanized and transcardially perfused with 4% cold paraformaldehyde. Serial sections of the brains were cut (40 µm) throughout the entire hippocampus on a vibratome (Leica). Every sixth section throughout the hippocampus was processed for BrdU or DCX immunohistochemistry, as previously described. For each immunodetection, slides were first incubated overnight at 4°C with a mouse monoclonal anti-BrdU antibody (1∶200; Becton-Dickinson) or a goat anti-DCX (1∶400; Santa Cruz Laboratories). For chromogenic immunodetection, sections were then incubated for 1 h in biotin-conjugated species-specific secondary antibodies (1∶100; Vector Laboratories) followed by a peroxidase-avidin complex solution according to the manufacturer's protocol. The peroxidase activity of immune complexes was visualized with DAB staining using the VectaStain ABC kit (Vector Laboratories). […] All BrdU-labeled cells in the granular cell layer and SGZ were counted in each section (n = 10 and 5 mice per group) at 400× and 1,000× magnification under a light microscope (Olympus) by an experimenter blinded to the study code. […]
# [6] = tested on: corticosterone (HPA axis); experiment: Stress-induced serum corticosterone levels; format: in vivo, mouse; details: fluoxetine i.p. 3 mg/kg, 30 min after 10 min tube restraint, vs saline; n = 10
# Method: Mice were individually housed for at least 12 h before blood sample collection. Serum samples, collected in the morning, were obtained by retroorbital puncture before and 30 min after the end of a 10 min tube restraint. Levels of corticosterone were measured by radioimmunoassay using a commercially available kit (MP Biomedicals).
# mice [7] = details: mouse, in vivo, ip
# Method: Supplementary file pbio.1000355.s006.tif: Figure S6 Mouse locomotion activity. To determine whether spadin induced a change in locomotor activity, mice (n = 8 per group) were injected with the saline solution or spadin (10^−5M in 100 µl bolus, i.p.) 30 min before starting the test session. Locomotor activity was monitored individually for 24 h using an infrared photobeam activity monitoring system (Imetronic, Pessac, France), which measured consecutive horizontal beam breaks. Testing was in transparent plastic cages (43×2 0×20 cm^3) with fresh bedding in a grid of 8 cm horizontal infrared beams. Locomotor activity was defined as breaking of consecutive photobeams. Mice were given 1 h habituation session before being treated with spadin or saline. Movements were recorded and totalized for each 5 min period during the first hour and then by 10 min time sections for the next 23 h. Six periods were pooled to obtain data for 1 h of time. Different movements were monitored: the coming-and-going between the back and the front of the cage, climbing, and other movements in the back or the front of the cage. Data are the mean value of 8 animals per condition, bars represent SEM. Mice were kept under standard laboratory conditions: 12∶12 light-dark cycle with free access to food and water during the experiment. […] (0.53 MB TIF) Click here for additional data file.
# mice [8] = experiment: Tail Suspension Test (TST), mice; format: in vivo, mouse; details: 4-d fluoxetine 3 mg/kg, vs saline, p>0.05
# Method: Tail suspension test (TST). Mice were suspended by the tail. […] The immobility time was recorded during a 6 min test session.
# TREK-1 channel = experiment: Whole-cell patch-clamp, hippocampal CA3 pyramidal neurons in brain slices, wild-type mice; format: cell-based, mouse; details: no aa; spadin n = 8, fluoxetine n = 5; mean ± SEM; unpublished data
# mice [9] = experiment: Forced Swimming Test (FST), mice; format: in vivo, mouse
# Method: Porsolt forced swim test (FST). Mice (Janvier, France) were placed individually in cylinders (height: 30 cm, diameter: 15 cm) filled with 12 cm deep water (temperature: 22 ±1°C) for 6 min. The total period of immobility was recorded during the last 4 min.
# mice [10] = experiment: Novelty Suppressed Feeding test (NSF), mice; format: in vivo, mouse; details: 4 d; spadin i.v. 10^−6 M, fluoxetine i.p. 3 mg/kg; vs saline
# Method: Novelty–suppressed feeding test (NSF). NSF paradigm is a conflict test that elicits competing motivations: the drive to eat and the fear of venturing into the center of a bright arena. Latency to begin eating is used as an index of anxiety- and depression- like behavior. After 4 day treatment (saline or spadin, i.v.) and 24 hours food-deprivation, mice were presented with a food pellet placed in the center of a brightly plastic box (50 x 50 x 20 cm). Latency to begin eating was measured as previously described.
# TREK-1 [11] = target: T1, TREK-1 (Mus musculus, UniProt P97438); experiment: Competition binding, 125I-spadin, TREK-1 transfected COS-7 cell homogenates; set-up: expressed in transfected cells; host or cells: COS-7 cells, DEAE-dextran transfection; details: competition, 10^−10 to 10^−5M
# T1 sequence (P97438 1-426): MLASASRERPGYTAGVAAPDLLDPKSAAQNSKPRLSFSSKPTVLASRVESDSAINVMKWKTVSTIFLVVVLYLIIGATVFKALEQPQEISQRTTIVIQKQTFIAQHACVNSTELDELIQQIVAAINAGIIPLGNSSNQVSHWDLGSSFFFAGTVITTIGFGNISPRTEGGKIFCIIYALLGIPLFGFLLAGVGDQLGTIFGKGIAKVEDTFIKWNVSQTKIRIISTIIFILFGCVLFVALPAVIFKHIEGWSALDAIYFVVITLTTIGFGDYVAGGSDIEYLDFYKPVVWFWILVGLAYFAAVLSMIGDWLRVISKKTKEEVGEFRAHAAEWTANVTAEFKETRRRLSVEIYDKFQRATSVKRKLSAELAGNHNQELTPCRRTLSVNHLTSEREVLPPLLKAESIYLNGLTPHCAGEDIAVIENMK
# Method: For competition experiments, homogenates from TREK-1 transfected COS-7 or C13NJ cells were incubated with 0.2 nM ^125I-spadin or ^125I-NT (200,000 cpm in 250 µl) iodinated and purified as previously described. Incubations were performed in 50 mM Tris-HCl, pH 7.4 containing 0.1% BSA in the presence of increasing concentrations of non-radioactive spadin or NT (10^−10 to 10^−5M). Incubations were terminated by addition of 2 ml of ice-cold binding buffer followed by filtration through cellulose acetate filters (Sartorius, Göttingen, Germany) and washing twice with 2 ml of ice-cold buffer. Radioactivity on filters was counted with a gamma-counter.
# C13NJ cells = experiment: C13NJ wound-healing (cell migration) assay; format: cell-based; details: 10 nM NT in serum free medium; without spadin, or (spadin line) with 1 µM spadin; unstimulated 4%±1%
# From the text: A cell-free zone was created within a semi-confluent monolayer of microglial culture by scratching cells off with a pipette tip. We analyzed by time-lapse microscopy how cells repopulated the cell-free zone, as already described. Supplementary file pbio.1000355.s001.tif: Figure S1 […] wound-healing assay. A cell-free zone was created within a semi-confluent monolayer with a pipette tip. We analyzed by time-lapse microscopy how cells repopulated the cell-free zone. The 100% of migrating cells was calculated by stimulation of cell migration with 10% of Fetal Calf Serum (FCS). (0.13 MB TIF) Click here for additional data file.
compound,measurement,setting,value
CN1C(=O)CN=C(c2ccccc2)c2cc(Cl)ccc21 [diazepam],rearing/step numbers ratio,mice [1],decrease of the rearing/step numbers ratio
same,light/dark transitions,mice [2],significantly induced an increase in the number of light/dark transitions
same,time spent in the open arms,mice [3],significantly reduced the time spent into the aversive open arms
CNCCC(Oc1ccc(C(F)(F)F)cc1)c1ccccc1 (stereo not shown) [fluoxetine],block of arachidonic acid-evoked current,"TREK-1 [4]; 20 µM fluoxetine, 10 µM aa, at −50 mV",fully blocked
same,reversibility of block,TREK-1 [4]; spadin 1 µM and fluoxetine 20 µM,reversible
same,number of BrdU-positive cells,[5]; 4-d fluoxetine,no effect on neurogenesis
same,number of BrdU-positive cells,"[5]; 15 d treatment, spadin 10^−5 M or fluoxetine, n = 5",significant increase in the number of BrdU-positive cells
same,reduction of stress-induced increase in corticosterone levels,[6],59.1%
same,locomotor activity,mice [7],Neither spadin nor fluoxetine had any effect on mouse locomotion
same,effect of subchronic treatment,mice [8],no effect
same,"inhibition of current recorded in presence of potassium blockers, peptide/drug alone",TREK-1 channel,13.0%±3.8%
same,effect of subchronic treatment,"mice [9]; 4-d fluoxetine 3 mg/kg, FST, vs saline, p>0.05",no effect
same,"reduction of time of immobility, chronic treatment","mice [9]; 15 d, i.v. once a day, spadin 10^−6 M, fluoxetine 1 mg/kg, vs saline p<0.001, n = 8",around 30%
same,latency to feed,mice [10],no effect
neurotensin [NT],displacement of 125I-spadin binding,TREK-1 [11],unable to displace the binding of ^125I-spadin
same,"number of cells that migrated, % of migrating cells in presence of 10% FCS",C13NJ cells,35.1%±2.3%
